Reference: ChEMBL document CHEMBL4382269, “Discovery of Potent, Efficient, and Selective Inhibitors of Phosphoinositide 3-Kinase δ through a Deconstruction and Regrowth Approach” (J Med Chem, 2018)

What was measured:
[1] = target: Phosphatidylinositol 4,5-bisphosphate 3-kinase catalytic subunit alpha isoform (Homo sapiens, UniProt P42336); assay: Inhibition of PI3Kalpha (unknown origin) using PIP2 as substrate preincubated for 15 mins followed by substrate addition measured after 60 mins by HTRF method
Sequence of Phosphatidylinositol 4,5-bisphosphate 3-kinase catalytic subunit alpha isoform (P42336 whole entry, canonical isoform): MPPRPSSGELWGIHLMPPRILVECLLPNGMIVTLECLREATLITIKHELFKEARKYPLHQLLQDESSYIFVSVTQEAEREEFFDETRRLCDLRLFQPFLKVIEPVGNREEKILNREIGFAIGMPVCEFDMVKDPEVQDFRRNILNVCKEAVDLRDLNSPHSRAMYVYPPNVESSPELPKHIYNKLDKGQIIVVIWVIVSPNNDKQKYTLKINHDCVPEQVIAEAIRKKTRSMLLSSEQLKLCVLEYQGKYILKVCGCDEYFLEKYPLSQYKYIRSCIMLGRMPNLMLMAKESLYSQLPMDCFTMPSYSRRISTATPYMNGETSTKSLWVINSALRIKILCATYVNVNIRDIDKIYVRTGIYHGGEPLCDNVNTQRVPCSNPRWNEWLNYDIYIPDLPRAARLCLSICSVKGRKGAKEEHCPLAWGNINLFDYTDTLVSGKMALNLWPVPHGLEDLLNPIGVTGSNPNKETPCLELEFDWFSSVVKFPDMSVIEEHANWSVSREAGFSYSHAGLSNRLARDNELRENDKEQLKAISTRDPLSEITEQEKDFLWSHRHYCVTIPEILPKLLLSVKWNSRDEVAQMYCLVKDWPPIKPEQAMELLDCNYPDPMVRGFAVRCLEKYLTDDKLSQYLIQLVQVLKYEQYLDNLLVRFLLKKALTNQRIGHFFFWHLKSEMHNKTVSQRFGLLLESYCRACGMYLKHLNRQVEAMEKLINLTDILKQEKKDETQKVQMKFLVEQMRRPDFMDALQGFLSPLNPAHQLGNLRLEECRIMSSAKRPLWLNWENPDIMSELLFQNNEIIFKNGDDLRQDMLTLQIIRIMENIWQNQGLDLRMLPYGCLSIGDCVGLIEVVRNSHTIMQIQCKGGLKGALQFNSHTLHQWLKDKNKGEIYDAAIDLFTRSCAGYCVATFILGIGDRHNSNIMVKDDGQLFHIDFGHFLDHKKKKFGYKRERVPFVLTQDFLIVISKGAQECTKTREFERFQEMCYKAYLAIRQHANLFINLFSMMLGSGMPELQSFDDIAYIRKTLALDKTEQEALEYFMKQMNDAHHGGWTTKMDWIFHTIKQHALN

[2] = target: Phosphatidylinositol 4,5-bisphosphate 3-kinase catalytic subunit beta isoform (Homo sapiens, UniProt P42338); assay: Inhibition of PI3Kbeta (unknown origin) using PIP2 as substrate preincubated for 15 mins followed by substrate addition measured after 60 mins by HTRF method
Sequence of Phosphatidylinositol 4,5-bisphosphate 3-kinase catalytic subunit beta isoform (P42338 whole entry, canonical isoform): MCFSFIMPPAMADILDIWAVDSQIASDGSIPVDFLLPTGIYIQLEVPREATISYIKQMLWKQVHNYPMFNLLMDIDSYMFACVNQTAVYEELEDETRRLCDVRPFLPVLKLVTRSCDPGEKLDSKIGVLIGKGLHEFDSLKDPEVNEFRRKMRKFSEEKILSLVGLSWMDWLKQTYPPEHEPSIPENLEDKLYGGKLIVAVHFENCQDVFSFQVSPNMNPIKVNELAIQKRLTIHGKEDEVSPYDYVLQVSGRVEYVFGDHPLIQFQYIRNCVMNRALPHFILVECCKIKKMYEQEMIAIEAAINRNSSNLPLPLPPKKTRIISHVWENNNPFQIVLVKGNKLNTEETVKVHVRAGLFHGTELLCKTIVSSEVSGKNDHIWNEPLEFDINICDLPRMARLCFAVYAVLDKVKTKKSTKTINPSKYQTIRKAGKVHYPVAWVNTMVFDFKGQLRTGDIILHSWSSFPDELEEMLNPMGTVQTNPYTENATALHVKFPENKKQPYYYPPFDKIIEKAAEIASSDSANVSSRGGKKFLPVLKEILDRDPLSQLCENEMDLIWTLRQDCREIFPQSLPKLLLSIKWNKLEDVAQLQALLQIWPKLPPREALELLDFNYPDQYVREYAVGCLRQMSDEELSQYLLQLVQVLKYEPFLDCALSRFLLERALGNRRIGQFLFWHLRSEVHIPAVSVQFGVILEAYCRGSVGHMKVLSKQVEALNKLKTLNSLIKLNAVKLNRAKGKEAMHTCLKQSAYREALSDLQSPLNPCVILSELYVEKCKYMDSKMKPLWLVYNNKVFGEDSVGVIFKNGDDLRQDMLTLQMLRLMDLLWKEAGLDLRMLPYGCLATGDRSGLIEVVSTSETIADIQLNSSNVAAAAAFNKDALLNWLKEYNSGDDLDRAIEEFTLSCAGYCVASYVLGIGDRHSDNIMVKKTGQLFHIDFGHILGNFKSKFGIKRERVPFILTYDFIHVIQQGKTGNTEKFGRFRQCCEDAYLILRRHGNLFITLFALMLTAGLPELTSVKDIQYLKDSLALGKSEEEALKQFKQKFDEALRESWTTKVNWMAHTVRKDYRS

[3] = target: T1, Phosphatidylinositol 4,5-bisphosphate 3-kinase catalytic subunit delta isoform (Homo sapiens, UniProt O00329); assay: Inhibition of PI3Kdelta (unknown origin) using PIP2 as substrate preincubated for 15 mins followed by substrate addition measured after 60 mins by HTRF method
T1 sequence (O00329 whole entry): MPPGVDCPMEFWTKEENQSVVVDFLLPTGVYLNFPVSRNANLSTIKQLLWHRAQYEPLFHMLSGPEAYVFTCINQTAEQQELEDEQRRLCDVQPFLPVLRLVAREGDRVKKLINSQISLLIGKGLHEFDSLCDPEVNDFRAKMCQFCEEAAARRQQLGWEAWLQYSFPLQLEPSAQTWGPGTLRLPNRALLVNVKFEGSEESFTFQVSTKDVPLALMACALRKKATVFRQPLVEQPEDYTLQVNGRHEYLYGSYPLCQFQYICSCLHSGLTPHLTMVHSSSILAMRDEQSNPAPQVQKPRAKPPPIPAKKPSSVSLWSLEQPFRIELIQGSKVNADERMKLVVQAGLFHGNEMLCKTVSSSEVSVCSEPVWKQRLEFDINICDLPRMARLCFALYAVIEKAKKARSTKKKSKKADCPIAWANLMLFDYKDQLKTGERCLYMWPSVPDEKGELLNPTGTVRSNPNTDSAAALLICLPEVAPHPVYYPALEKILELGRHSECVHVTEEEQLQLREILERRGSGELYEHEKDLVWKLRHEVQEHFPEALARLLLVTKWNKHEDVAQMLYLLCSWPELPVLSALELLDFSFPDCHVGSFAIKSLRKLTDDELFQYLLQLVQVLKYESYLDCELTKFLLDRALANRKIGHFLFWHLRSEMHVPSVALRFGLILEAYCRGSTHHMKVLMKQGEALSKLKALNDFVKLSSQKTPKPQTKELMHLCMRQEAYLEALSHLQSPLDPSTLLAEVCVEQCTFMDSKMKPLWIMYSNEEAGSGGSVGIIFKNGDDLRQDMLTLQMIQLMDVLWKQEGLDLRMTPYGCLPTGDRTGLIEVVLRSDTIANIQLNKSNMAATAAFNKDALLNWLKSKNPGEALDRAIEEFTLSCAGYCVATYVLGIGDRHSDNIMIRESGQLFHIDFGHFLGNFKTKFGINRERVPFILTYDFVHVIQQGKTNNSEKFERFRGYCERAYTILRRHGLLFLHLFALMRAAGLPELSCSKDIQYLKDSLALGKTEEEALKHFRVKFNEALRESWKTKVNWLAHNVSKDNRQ

[4] = target: Phosphatidylinositol 4,5-bisphosphate 3-kinase catalytic subunit gamma isoform (Homo sapiens, UniProt P48736); assay: Inhibition of PI3Kgamma (unknown origin) using PIP2 as substrate preincubated for 15 mins followed by substrate addition measured after 60 mins by HTRF method
Sequence of Phosphatidylinositol 4,5-bisphosphate 3-kinase catalytic subunit gamma isoform (P48736 whole entry, canonical isoform): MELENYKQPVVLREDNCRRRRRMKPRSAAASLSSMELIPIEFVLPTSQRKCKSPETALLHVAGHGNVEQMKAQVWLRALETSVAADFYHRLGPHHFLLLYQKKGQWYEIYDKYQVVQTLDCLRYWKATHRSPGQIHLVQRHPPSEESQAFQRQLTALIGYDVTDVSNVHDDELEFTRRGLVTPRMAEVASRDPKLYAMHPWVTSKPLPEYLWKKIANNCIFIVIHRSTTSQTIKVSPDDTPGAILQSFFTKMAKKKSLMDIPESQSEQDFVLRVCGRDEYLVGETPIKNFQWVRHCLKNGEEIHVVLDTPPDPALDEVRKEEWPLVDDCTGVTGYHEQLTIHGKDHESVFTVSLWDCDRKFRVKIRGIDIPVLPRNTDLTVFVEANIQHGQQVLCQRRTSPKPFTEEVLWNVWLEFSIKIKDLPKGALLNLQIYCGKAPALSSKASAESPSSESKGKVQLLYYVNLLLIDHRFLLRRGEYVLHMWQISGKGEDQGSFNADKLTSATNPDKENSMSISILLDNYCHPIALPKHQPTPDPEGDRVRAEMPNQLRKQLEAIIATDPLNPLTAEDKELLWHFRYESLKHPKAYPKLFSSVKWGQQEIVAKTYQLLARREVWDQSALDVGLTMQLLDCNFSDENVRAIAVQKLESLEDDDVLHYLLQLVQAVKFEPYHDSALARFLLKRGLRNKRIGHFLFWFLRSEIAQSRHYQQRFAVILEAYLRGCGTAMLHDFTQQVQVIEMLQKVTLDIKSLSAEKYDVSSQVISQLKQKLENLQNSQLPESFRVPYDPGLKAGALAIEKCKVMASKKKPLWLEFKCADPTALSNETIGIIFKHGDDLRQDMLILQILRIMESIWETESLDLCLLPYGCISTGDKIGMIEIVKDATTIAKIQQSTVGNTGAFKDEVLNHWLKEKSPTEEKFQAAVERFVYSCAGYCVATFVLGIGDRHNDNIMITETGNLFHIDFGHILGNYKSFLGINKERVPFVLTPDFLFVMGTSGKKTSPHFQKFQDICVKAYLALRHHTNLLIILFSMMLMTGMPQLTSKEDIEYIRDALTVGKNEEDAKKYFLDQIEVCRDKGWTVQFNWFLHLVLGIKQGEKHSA

IC50 [1]	IC50 [2]	IC50 [3]	IC50 [4]	SMILES
> 50.1 µM	> 50.1 µM	158 µM	25.1 µM	c1cc(-c2nnc(CN3CCOCC3)o2)c2cn[nH]c2c1
6.31 µM	3.98 µM	0.398 µM	2.51 µM	CS(=O)(=O)Nc1cc(-c2ccc3cn[nH]c3c2)cnc1Cl
0.398 µM	2.51 µM	–	0.316 µM	COc1ncc(-c2cc(-c3ncc(CN4C[C@@H](C)O[C@@H](C)C4)o3)c3cn[nH]c3c2)cc1NS(C)(=O)=O
